Where two headings read alike, the source gives them in different places.

In data set [1] the test system is E13.5 rat pancreatic explants. Description: Real-time PCR of lineage markers in cultured pancreatic explants with HDACi. The note with it: for endocrine β/δ lineage: MS275 1 μM, NaB 125 μM; for Arx expression enhanced / Ngn3 expression peak, higher than in controls / increase in PP expression / increase in glucagon expression: day7; for SPP1 expression: especially after 5 and 7 days of culture; for Ngn3 expression profile: from day1; for Pax4 expression: over 7 days of culture; for increase in levels of Mist1 / increase in levels of P48 / increase in levels of amylase: vs control. The data set is classed as cell-based. (In general: Real-time PCR tracks product formation cycle by cycle.)
From the text: The first day post-coitum was taken as embryonic day 0.5 (E0.5). Pregnant female rats at 13.5 days of gestation were killed by CO2asphyxiation, according to the French Animal Care Committee's guidelines. Dorsal pancreatic buds from E13.5 rat embryos were dissected as described previously (2).
(§2) Organ culture, HDACi treatments, BrdU incorporation: Pancreases were laid on 0.45 μm filters (Millipore) at the air-medium interface in Petri dishes, containing RPMI 1640
RNA extraction and real-time PCR: Total RNA was extracted from pools of at least three pancreases using RNeasy Microkit (Qiagen) and reverse transcribed using Superscript reagents (Invitrogen). Real-time PCR was performed with the 7300 Fast real-time PCR System; each reaction consisted of a mix of Taqman® universal PCR master mix with a specific labelled probe (Applied Biosystem) (21). The comparative method of relative quantification (2^−ΔΔct) (38) was used to calculate expression levels of each target gene, normalized to peptidylpropyl isomerase A (ppia/cyclophilin A). The data are presented as fold changes in gene expression. At least three pools of explants were analyzed per condition and results are expressed as means±SEM. Statistical significance was determined using Student's t test.

In data set [2] the test system is Total cellular HDAC enzyme activity. Put plainly: HDAC enzyme activity assay (total cellular HDAC activity of treated explant extracts). In kind it is biochemical. Conditions: extracts of cultured rat pancreatic explants treated with 1 mM VPA or 100 nM TSA. How it is done: HDAC enzyme activity assay: Total cellular HDAC enzyme activity was measured using an HDAC assay kit (Millipore). Briefly, 2 μg of control or VPA- or TSA-treated cell extracts (prepared as described above) were incubated in a 96-well plate with a fluorometric substrate in HDAC assay buffer for 45 min at 37° C. An activator solution was then added to release the fluorophore from the deacetylated substrates, and fluorescence was measured in a plate-reading fluorimeter (excitation=390 nm, emission detection=460 nm).
To study the role of HDACs in pancreas development, the inventors treated rat pancreatic explants with VPA and TSA. They cultured E13.5 rat pancreases on floating filters at the air-medium interface for 14 days. Under such conditions, acinar and endocrine cells develop in a way that replicates pancreas development in vivo (2, 21). […] They next measured total HDAC activity from day 0 to day 14 and found a 65.4%±1.6% decrease between the two stages.

Data set [3] deals with E13.5 rat pancreatic explants. Put plainly: Immunohistochemistry and surface-area quantification of cultured pancreatic explants. In kind it is cell-based. The note with it: for NGN3+ cells: immunohistochemical analysis, day7; for increase in the number of glucagon-expressing cells: immunohistological analysis; for number of insulin+ cells: immunohistology, days 5 and 7; for acinar cell development (surface area occupied by amylase+ cells): vs control.
From the text: Dorsal pancreatic buds from E13.5 rat embryos were dissected as described previously (2).
as §2

Data set [4] has as its system E13.5 rat pancreatic explants. Put plainly: In situ hybridization of Ngn3 transcripts in cultured pancreatic explants. The note with it: day5. In kind it is cell-based. How it is done: In situ hybridization: In situ hybridization was performed as previously described (15) and colorimetric development was performed with 5-bromo-4-chloro-3-indolyl phosphate (Promega) and nitroblue tetrazolium (Roche). No signal was obtained when a sense riboprobe was used.

Data set [5] relates to E13.5 rat pancreatic explants. Put plainly: BrdU incorporation cell proliferation assay in pancreatic explants. The data set is classed as cell-based. The note with it: for proliferative rate for glucagon+ cells: 5-day treatment, vs controls; for percentage of PDX1+/BrdU+: 1 day of culture, BrdU during last hour, control 30.4±1.4%; for proliferation of NGN3+ cells: after 3 days of culture. The method, then:
(§1) (Invitrogen) supplemented with penicillin (100 U/mL), streptomycin (100 μg/mL), HEPES (10 mmol/L), L-glutamine (2mmol/L), non-essential amino acids (1x, Invitrogen) and 10% heat-inactivated calf serum (HyClone). Cultures were maintained at 37° C. in humidified 95% air/5% CO2. Medium was changed every other day. Explants were cultured in the presence of VPA or TSA (Sigma). We determined the optimal concentration of both inhibitors by testing increasing doses of VPA (from 0.75 mM to 3 mM) and TSA (from 50 nM to 200 nM). […] MS275 and NaB (Sigma) were used at 1 μM and 125 μM, respectively. For cell proliferation assay, 10 μM BrdU (Sigma) was added to the medium during the last hour of culture.
Immunohistochemistry and quantification: Tissues were fixed in 10% formalin, pre-embedded in low gelling agarose and embedded in paraffin. All sections (4 μm thick) of each pancreatic explant were collected and processed for immunohistochemistry, as described previously (14, 46). Antibodies were used at the following dilutions: mouse anti-insulin (Sigma, 1/2000), guinea pig anti-insulin (DAKO, 1/200), mouse anti-glucagon (Sigma, 1/2000), rabbit anti-amylase (Sigma, 1/300), goat anti-osteopontin/SPP1 (R&D systems, 1/200), rabbit anti-PDXI ((14), 1/1000), mouse anti-BrdU (Amersham, ½), rabbit anti-Ngn3 ((21), 1/1000). The fluorescent secondary antibodies were: fluorescein anti-rabbit and anti-goat antibodies (Jackson Immunoresearch, 1/200), Texas-red anti-mouse antibody (Jackson Immunoresearch, 1/200) Alexa fluor 488 anti-rabbit antibody (Biogenex, 1/400) and AMCA anti-guinea pig antibody (Jackson Immunoresearch, 1/200). Nuclei were stained blue with Hoechst 33342 (0.3 μg/ml, Invitrogen). Ngn3 detection was perfointed as previously described (21) using the Vectastain elite ABC kit (Vector Laboratories). Photographs were taken using a fluorescence microscope (Leitz DMRB, Leica) and digitized using cooled 3CCD cameras (C5810 or C7780, Hamamatsu). The surface area of each staining was quantified with IPLab (Scanalytics). The surface areas per section were summed to obtain the total surface area per explant in mm2. At least three explants were analyzed per condition and results are expressed as means±SEM. Statistical significance was determined using Student's t test.
Thus, they cultured pancreases for 1 day with or without VPA and TSA and added BrdU to the medium during the last hour of culture.
In general terms: Uptake of a labelled nucleoside into DNA is a usual measure of proliferation.

Data set [6] relates to E13.5 rat pancreatic explants. Put plainly: TUNEL labelling of apoptotic amylase or insulin cells. The data set is classed as cell-based. The method, then: TUNEL labelling: Terminal deoxynucleotidyltransferase-mediated dUTP-biotin nick end labeling (TUNEL) experiments were performed using an in situ cell death detection kit (Roche) and followed by insulin and amylase immunostaining.
The effects of HDACi treatment on pancreatic differentiation are independent of proliferation and apoptosis: The observed effects of HDACi on pancreatic development could be attributed to a direct effect of HDAC inhibition on the differentiation program itself or to an indirect effect on proliferation/apoptosis. First, the inventors asked whether the massive increase in the number of NGN3+ cells was accompanied by an increased proliferation of early PDX1+ pancreatic precursor cells that would give rise to more NGN3+ endocrine progenitor cells (20). Thus, they cultured pancreases for 1 day with or without VPA and TSA and added BrdU to the medium during the last hour of culture. No difference in BrdU incorporation was seen. The percentage of PDX1+/BrdU+ was 30.4±1.4% in control conditions, 29.3±2.3% with VPA and 31.9±1.4% in TSA-treated pancreases. They next determined whether the greater number of NGN3+ cells was associated with increased proliferation of such cells. […] Given the observed increase in glucagon-expressing cells with HDACi treatment, the inventors also tested for increased proliferation of such cells. […]

Data set [7] deals with E13.5 rat pancreatic explants. Put plainly: Dose finding of HDACi in organ culture (cell death). Conditions: TSA tested from 50 nM to 200 nM; data not shown. The method, then:
as §1

The subject of data set [8] is E13.5 rat pancreatic explants. Description: Morphology of pancreases cultured with HDACi. In kind it is cell-based. Conditions: for morphology of cultured pancreas (branching, cystic structures, acinar structures): after 7 days of culture.
From the text: as §2
HDACi treatment suppresses acinar differentiation and promotes ductal differentiation: The inventors first compared the morphology of pancreases cultured in the presence or absence of HDACi.
For data set [9], the system named is class I and class II HDACs. The note with it: background, refs 17 and Yoshida et al., 1990; cited from earlier work.
Setting [10] is: real-time PCR, 7 days of culture.

As for `Nc1ccccc1NC(=O)c1ccc(CNC(=O)OCc2cccnc2)cc1` [MS275], in data set [1], the “endocrine β/δ lineage” value is “results similar to those with VPA”.

`CC(/C=C/C(=O)NO)=C\[C@@H](C)C(=O)c1ccc(N(C)C)cc1` [TSA, trichostatin A]: the “decrease in HDAC activity” value in data set [2] is 99.2%±0.9%. In data set [1] (after 14 days in culture, data not shown), the somatostatin expression entry is on record as “increased”. In data set [1] (real-time PCR), the NeuroD1 expression result is given as “strongly activated”; the Arx expression enhanced is listed as roughly 11 fold; the “Ngn3 expression peak, higher than in controls” value was 14 fold; the “increase in PP expression” value was determined as 6 fold. Further, in data set [1] (real-time PCR), the “increase in glucagon expression” value is 25 fold, the SPP1 expression entry is “major increase”, the Ngn3 expression profile result is “dramatic increase” and the Pax4 expression result is “strongly activated”. Besides, in data set [1] (real-time PCR), the “increase in levels of Mist1” value is on record as “strongly reduced”, the “increase in levels of P48” value is “strongly reduced” and the “increase in levels of amylase” value is reported as “strongly reduced”. Also, in [1] (setting [10]), the insulin expression result was “no differences” and the somatostatin expression result is “no differences”. Further, the “insulin expression increased compared with controls” value (“insulin expression increased” for short) in data set [1] (real-time PCR, day9) was found to be 2 fold. Moreover, the “insulin expression increased” value in data set [1] (real-time PCR, day11) worked out at 3 fold. The “insulin expression increased” value in data set [1] (real-time PCR, day14) was determined as 5 fold. Further, in [3], the “NGN3+ cells” value was “many were present”, the “increase in the number of glucagon-expressing cells” value was found to be 4 fold, the “number of insulin+ cells” value is “no differences” and the “acinar cell development (surface area occupied by amylase+ cells)” value was “much lower”. In data set [4], the “Ngn3 mRNA expression by in situ hybridization” value is reported as “enhanced Ngn3 expression”. Also, in [5], the “proliferative rate for glucagon+ cells” value is listed as “no difference”, the “percentage of PDX1+/BrdU+” value was determined as 31.9±1.4% and the “proliferation of NGN3+ cells” value is “neither VPA nor TSA increased the proliferation”. In addition, in data set [6] (TUNEL method), the “number of apoptotic cells expressing amylase or insulin” value was “neither VPA nor TSA treatments modified the number of apoptotic cells”. Moreover, the “concentrations that result in increased cell death” value in [7] is given as “above 125 nM”. For the same molecule, the “morphology of cultured pancreas (branching, cystic structures, acinar structures)” value in data set [8] is given as “the tips of the branched epithelium formed cystic structures”. In addition, the “morphology: translucent buds at the periphery of the pancreas” value in [8] (after 11 days of culture) is listed as “developed translucent buds”. In data set [9], the HDAC class selectivity result is “inhibits both class I and class II HDACs”.

With `CCCC(=O)[O-].[Na+]` [NaB, sodium butyrate], the “endocrine β/δ lineage” value in data set [1] is “results similar to those with TSA”.

For `CCCC(CCC)C(=O)O` [VPA, valproic acid], in [2], the “decrease in HDAC activity” value is 93.2%±2.3%. Besides, in data set [1] (real-time PCR), the NeuroD1 expression entry is given as “significantly lower”; the Arx expression enhanced result is “around 3 fold”; the “Ngn3 expression peak, higher than in controls” value was found to be 14 fold; the “increase in PP expression” value was 4 fold. In addition, in [1] (real-time PCR), the “increase in glucagon expression” value came out at 5 fold, the SPP1 expression result is “major increase”, the Ngn3 expression profile result is on record as “dramatic increase” and the Pax4 expression result is given as “dramatic decrease”. Also, in data set [1] (real-time PCR), the “increase in levels of Mist1” value is listed as “strongly reduced”, the “increase in levels of P48” value is on record as “strongly reduced” and the “increase in levels of amylase” value is “strongly reduced”. In data set [1] (setting [10]), the insulin expression result was “dramatic decrease” and the somatostatin expression entry is given as “almost full abolition”. Moreover, in data set [1] (tissues cultured for 14 days), the insulin expression result is recorded as “remained dramatically low”. For the same molecule, in data set [3], the “NGN3+ cells” value is given as “many were present”, the “increase in the number of glucagon-expressing cells” value stood at 4 fold, the “number of insulin+ cells” value is given as “major decrease” and the “acinar cell development (surface area occupied by amylase+ cells)” value is listed as “much lower”. Moreover, in [3] (tissues cultured for 14 days), the “insulin+ cells observed immunohistochemically” value is recorded as “Few”. Further, the “Ngn3 mRNA expression by in situ hybridization” value in data set [4] is on record as “enhanced Ngn3 expression”. Further, in data set [5], the “proliferative rate for glucagon+ cells” value is “no difference”, the “percentage of PDX1+/BrdU+” value is on record as 29.3±2.3% and the “proliferation of NGN3+ cells” value is “neither VPA nor TSA increased the proliferation”. For the same molecule, the “number of apoptotic cells expressing amylase or insulin” value in data set [6] is listed as “neither VPA nor TSA treatments modified the number of apoptotic cells”. Besides, the “morphology of cultured pancreas (branching, cystic structures, acinar structures)” value in data set [8] is reported as “the tips of the branched epithelium formed cystic structures”. Moreover, the HDAC class selectivity result in data set [9] is given as “preferentially targets class I HDACs”.

(Values after patent publication US20110033930A1, “METHOD FOR OBTAINING NGN3-EXPRESSING CELLS AND INSULIN PRODUCING-BETA CELLS” (priority 2008, published 2011).)
